Data published in article PMC6748986, “Potent modulation of the CepR quorum sensing receptor and virulence in a Burkholderia cepacia complex member using non-native lactone ligands” (Scientific Reports, 2019).

How the values were obtained:
CepR [1] = biological target: T1, CepR (Burkholderia cenocepacia, UniProt B4EMD0); assay: CepR antagonism in E. coli β-galactosidase reporter (Ec-reporter), competition against C8-AHL; assay type: cell-based, B. cenocepacia; details: for Inh% (100-Act%): Table S3, Ec-reporter; for CepR antagonism in words: Ec-reporter
T1 sequence (B4EMD0 1-239): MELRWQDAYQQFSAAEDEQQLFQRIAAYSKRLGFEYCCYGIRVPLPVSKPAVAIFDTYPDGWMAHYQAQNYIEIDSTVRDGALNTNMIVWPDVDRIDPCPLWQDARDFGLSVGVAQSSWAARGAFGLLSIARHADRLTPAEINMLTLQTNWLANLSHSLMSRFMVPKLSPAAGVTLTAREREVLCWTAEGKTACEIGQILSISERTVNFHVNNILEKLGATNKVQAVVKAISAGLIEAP
Source text: (§1) We began our study by screening the AHL library for CepR modulators using an E. coli-based two plasmid reporter system (Ec-reporter)[38]–[40]. Certain members of the Bcc harbor additional QS systems that are either AHL-based (e.g., BviI/BviR in B. vietnamiensis)[41] or diffusible signal factor (DSF)-based (B. cenocepacia)[42], and at least one member of the Bcc has multiple receptors that respond to C8-AHL (e.g., CepR and CepR2 in B. cenocepacia)[43]. Thus, we reasoned that using a CepR reporter in a heterologous background could simplify our initial analyses. We modified our previously reported E. coli-based two plasmid β-galactosidase reporter system to develop a CepR Ec-reporter (see Methods). The first plasmid, pJN105-cepR, contains CepR from B. cenocepacia under the control of the L-arabinose inducible pBAD promoter. A second plasmid contains a transcriptional fusion of lacZ to the cepI promoter region. The two plasmids were co-transformed into a QS mutant E. coli strain (JLD271 ∆sdiA) that lacks its LuxR-type receptor, SdiA. Using this reporter system, if an exogenously -added compound is able to interact with CepR, this will affect the protein’s interaction with the cepI promoter region and alter β-galactosidase production. Enzyme production, and thereby CepR activity, is then measurable via the degradation of a colorimetric substrate for β-galactosidase. Using this new Ec-reporter, we observed robust activity of CepR in response to its native ligand C8-AHL, with an EC50 of 5 nM (Table 1).
To identify antagonists of CepR, we screened the AHL library (at 100 μM) in competition against the native ligand C8-AHL (at approximately twice its EC50 value, 0.01 μM) in the Ec-reporter. […] The active compounds were subjected to dose-response analyses in the Ec-reporter to obtain IC50 values and assess their relative potencies (Table 2; see Table S3 for complete screening data and Fig. S3 for dose-response curves). One general trend that we noted at the outset was the majority of the antagonists had acyl tails of similar or shorter overall length than CepR’s native ligand, C8-AHL. From this set, the strongest antagonists could be divided into two classes: (i) “short alkyl tail” AHLs or analogs thereof, and (ii) phenylacetanoyl HLs (PHLs). The discovery that the latter compounds were CepR antagonists was perhaps not surprising, as we have found substituted PHLs to strongly antagonize the majority of the LuxR-type receptors studied in our laboratory to date[22],[24],[29],[45],[46].
(§2) E. coli β-galactosidase reporter assays (derived from ref.[63]) and reagents used to obtain primary screening and dose-response data were performed as previously described[22],[60],[64], with the following modifications: E. coli JLD271 (∆sdiA) was co-transformed iteratively with pSC11-cepI and pJN105-cepR via electroporation. A single colony was used to start overnight cultures in LB medium + ampicillin (100 μg/mL) + gentamicin (15 μg/mL). A 1:10 dilution of overnight culture was grown in fresh medium to OD600 = 0.25. A sterile solution of L-arabinose in water (27 mM final concentration) was added to induce protein expression, after which cells were plated in 96-well plates containing varying concentrations of compound (200 μL total volume).
(§3) Cells were grown for 4 h, OD600 was read, 50 μL aliquots from each well were permeabilized in 200 μL Z Buffer, and then 150 μL of this mixture used to measure the cleavage of 25 μL of 4 mg/mL CPRG in phosphate buffered saline (PBS) at 37 °C until positive control wells developed a deep red color (~30 min). For all agonism assays, synthetic compound (100 μM) was screened alongside and compared to the native ligand, C8-AHL (100 μM). For all primary and dose-response antagonism assays, the concentration of native ligand utilized was 10 nM (approximately equal to twice its EC50 value). […] At least 3 separate trials were performed using unique cultures on separate days.

CepR [2] = biological target: T1, CepR; assay: CepR agonism in E. coli β-galactosidase reporter (Ec-reporter) JLD271 [pJN105-cepR + pSC11-cepI]; assay type: cell-based, B. cenocepacia
Source text: as §1
We used the CepR Ec-reporter to perform a primary agonism screen at a single compound concentration (100 μM, or its solubility limit, indicated in Table S1). Thirty-one compounds displaying ≥70% agonistic activity in CepR (relative to C8-AHL) were identified and subjected to dose-response analyses using the Ec-reporter (Table I; see Table S2 for complete screening data and Fig. S3 for dose-response curves).
as §2, §3

[3] = screening conc. 100 μM, against 10 nM C8-AHL
[4] = Table S2, Ec-reporter, screening conc. 100 μM

SMILES | Inh% (100-Act%) (CepR [1]; [3]) [%] | Act% (CepR [2]; [4]) [%] | further results
Cc1nc(-c2ccccc2)oc1CC(=O)N[C@H]1CCOC1=O [Compound D4] | 22 | 40 | –
Cc1ccc(C(=O)CCC(=O)N[C@H]2CCOC2=O)cc1 [Compound D6] | -50 | 61 | –
CCCc1ccc(C(=O)CCC(=O)N[C@H]2CCOC2=O)cc1 [Compound D7] | 15 | 18 | –
O=C(N[C@H]1CCOC1=O)c1cnn(-c2ccccc2)c1C(F)(F)F [Compound D9] | 0.0 | 14 | –
CCCCCCCCc1ccc(C(=O)N[C@H]2CCOC2=O)cc1 [Compound D13] | 38 | 4.2 | –
O=C(N[C@H]1CCOC1=O)C1CCC(c2ccc(Cl)cc2)CC1 (stereo partly shown) [Compound D14] | – | – | Inh% (100-Act%) (CepR [1]; screening conc. 40 μM): -20%; Act% (CepR [2]; Table S2, Ec-reporter, screening conc. 40 μM): 54%
O=C(COc1ccc(OC(F)(F)F)cc1)N[C@H]1CCOC1=O [Compound D15] | -20 | 46 | –
COc1cc(C(C)=O)ccc1OCC(=O)N[C@H]1CCOC1=O [Compound D16] | 0.0 | 3.5 | –
O=C(N[C@H]1CCOC1=O)c1ccc(N=Nc2ccccc2)cc1 [Compound D20] | – | – | Inh% (100-Act%) (CepR [1]; screening conc. 77 μM): 8.0%; Act% (CepR [2]; Table S2, Ec-reporter, screening conc. 77 μM): 37%
Cc1cccc(CC(=O)N[C@H]2CCOC2=O)c1 [Compound E1] | 11 | 16 | –
COc1cccc(CC(=O)N[C@H]2CCOC2=O)c1 [Compound E2] | -10 | 28 | –
CSc1ccc(CC(=O)N[C@H]2CCOC2=O)cc1 [Compound E6] | -10 | 3.7 | –
O=C(Cc1ccc(SC(F)(F)F)cc1)N[C@H]1CCOC1=O [Compound E8] | 0.0 | 14 | –
O=C(Cc1cc(C(F)(F)F)cc(C(F)(F)F)c1)N[C@H]1CCOC1=O [Compound E9] | 13 | 2.2 | –
O=C(Cc1ccc2ccccc2c1)N[C@H]1CCOC1=O [Compound E12] | -10 | 11 | –
O=C(COc1ccccc1)N[C@H]1CCOC1=O [Compound E14] | -30 | 57 | –
Cc1ccc(OCC(=O)N[C@H]2CCOC2=O)cc1 [Compound E15] | -30 | 65 | –
Cc1cccc(OCC(=O)N[C@H]2CCOC2=O)c1 [Compound E16] | 21 | 11 | –
COc1ccc(OCC(=O)N[C@H]2CCOC2=O)cc1 [Compound E17] | 0.0 | 50 | –
COc1cccc(OCC(=O)N[C@H]2CCOC2=O)c1 [Compound E18] | 0.0 | 30 | –
O=C(COc1ccc(F)cc1)N[C@H]1CCOC1=O [Compound E19] | 22 | 42 | –
O=C(COc1ccc(Cl)cc1)N[C@H]1CCOC1=O [Compound E20] | -20 | 100 | EC50 (CepR [2]; Table S2, Ec-reporter): 210 nM
O=C(COc1ccc(Br)cc1)N[C@H]1CCOC1=O [Compound E21] | -10 | 89 | –

SMILES | Inh% (100-Act%) (CepR [1]; [3]) [%] | Act% (CepR [2]; [4]) [%] | further results
O=C(COc1ccc(I)cc1)N[C@H]1CCOC1=O [Compound E22] | -30 | 92 | –
O=C(COc1ccc(C(F)(F)F)cc1)N[C@H]1CCOC1=O [Compound E23] | -10 | 89 | –
O=C(COc1ccc([N+](=O)[O-])cc1)N[C@H]1CCOC1=O [Compound E24] | -10 | 75 | –
Cc1cccc(CCC(=O)N[C@H]2CCOC2=O)c1 [Compound E27] | -10 | 75 | EC50 (CepR [2]; Table S2, Ec-reporter): 850 nM
O=C(CCc1cccc([N+](=O)[O-])c1)N[C@H]1CCOC1=O [Compound E38] | -10 | 93 | EC50 (CepR [2]; Ec-reporter, agonism dose-response): 660 nM; Maximal Activation (%) (CepR [2]; Ec-reporter, activity for 100 μM C8-AHL set to 100%, error ±10%): 93%
O=C(Cc1ccc(Br)cc1)NC1CCSC1=O (stereo not shown) [Compound F10] | 6.0 | 0.5 | CepR antagonism in words (CepR [1]): dramatic losses in activity
O=C(Cc1cccc([N+](=O)[O-])c1)NC1CCSC1=O (stereo not shown) [Compound F11] | 25 | 45.0 | –
COc1ccc(CC(=O)NC2CCSC2=O)cc1 (stereo not shown) [Compound F12] | -20 | 2.4 | –
O=C(Cc1ccc(-c2ccccc2)cc1)NC1CCSC1=O (stereo not shown) [Compound F13] | -20 | 35 | –
O=C(Cc1ccccc1)NC1CCCC1 [Compound F16] | -30 | 7.4 | –
O=C(Cc1cccc([N+](=O)[O-])c1)NC1CCCC1 [Compound F18] | -20 | 1.0 | CepR antagonism in words (CepR [1]): dramatic losses in activity
O=C(Cc1ccc(-c2ccccc2)cc1)NC1CCCC1 [Compound F20] | -10 | 0.5 | –
O=C(CCCc1c[nH]c2ccccc12)NC1CCCC1 [Compound F21] | 25 | -4.0 | –
O=C(Cc1cccc([N+](=O)[O-])c1)Nc1ccccc1 [Compound F25] | 12 | 3.0 | CepR antagonism in words (CepR [1]): dramatic losses in activity
CCCCCCCCCC(=O)CC(=O)NCc1ccccc1F [Compound F26] | 20 | -1.2 | –
CCCCCCCCCC(=O)CC(=O)NCc1ccc(OC)cc1 [Compound F31] | 21 | 7.6 | –
CCCCCCCCCC(=O)CC(=O)NCCc1ccccc1 [Compound F50] | – | – | Inh% (100-Act%) (CepR [1]; screening conc. 50 μM): 1.0%; Act% (CepR [2]; Table S2, Ec-reporter, screening conc. 50 μM): 12%
O=C(Cc1cccc([N+](=O)[O-])c1)Nc1cccc([N+](=O)[O-])c1 [Compound F55] | 13 | 25 | CepR antagonism in words (CepR [1]): dramatic losses in activity
O=C(CC(O)Cc1cccc(I)c1)N[C@H]1CCOC1=O (stereo partly shown) [Compound H15] | 18 | 2.6 | –
O=C(CC(=O)N[C@H]1CCOC1=O)Cc1cccc(Cl)c1 [Compound H23] | -20 | 53 | –
O=C(N[C@H]1CCOC1=O)c1ccccc1Br [Compound Q1] | -30 | 5.8 | –
O=C(N[C@H]1CCOC1=O)c1cccc(Br)c1 [Compound Q2] | -30 | 4.9 | –
O=C(N[C@H]1CCOC1=O)c1ccc(F)cc1 [Compound Q3] | 17 | 11 | –
